Format in all cases: functional
The species entered for assay [1] is Mus musculus. Description: Effect on whole mouse brain dopamine level after 1 day (control = 100+/-3).
Assay [2] is filed under the species Mus musculus. The assay is described as follows: Effect on whole mouse brain 5-hydroxyindoleacetic acid level after 1 day (control = 100+/-6).
For assay [3], the species on record is Mus musculus. The assay is described as follows: Effect on whole mouse brain 5-HT acid level after 1 day (control = 100+/-3).
The species named for assay [4] is Mus musculus. The assay is described as follows: Effect on whole mouse brain DOPAC level after 1 day (control = 100+/-4).
The species named for assay [5] is Mus musculus. Description: Effect on whole mouse brain acetylcholine level after 1 day (control = 100+/-8).
The species entered for assay [6] is Mus musculus. The assay is described as follows: Effect on whole mouse brain homovanillic acid level after 1 day (control = 100+/-4).
The species named for assay [7] is Mus musculus. Description: Effect on whole mouse brain choline level after 1 day (control = 100+/-1).
Assay [8] is filed under the species Mus musculus. Description: Effect on whole mouse brain norepinephrine level after 1 day (control = 100+/-5).
For assay [9], the species on record is Mus musculus. Description: Effect on whole mouse brain 5-HT acid level after 3h (control = 100+/-6).
Assay [10] is filed under the species Mus musculus. Description: Effect on whole mouse brain 5-hydroxyindoleacetic acid level after 3h (control = 100+/-14).
Assay [11] is filed under the species Mus musculus. Description: Effect on whole mouse brain 5-HT acid level after 1 week (control = 100+/-9).
For assay [12], the species on record is Mus musculus. The assay is described as follows: Effect on whole mouse brain DOPAC level after 1 day (control = 100+/-6).
Assay [13] is filed under the species Mus musculus. Description: Effect on whole mouse brain norepinephrine level after 3h (control = 100+/-8).
Assay [14] is filed under the species Mus musculus. The assay is described as follows: Effect on whole mouse brain DOPAC level after 3h (control = 100+/-11).
Assay [15] is filed under the species Mus musculus. Description: Effect on whole mouse brain dopamine level after 1 week (control = 100+/-10).
Assay [16] is filed under the species Mus musculus. The assay is described as follows: Effect on whole mouse brain choline level after 1 day (control = 100+/-9).
For assay [17], the species on record is Mus musculus. Description: Effect on whole mouse brain choline level after 1 week (control = 100+/-9).
The species entered for assay [18] is Mus musculus. The assay is described as follows: Effect on whole mouse brain norepinephrine level after 1 week (control = 100+/-10).
The species named for assay [19] is Mus musculus. Description: Effect on whole mouse brain homovanillic acid level after 1 day (control = 100+/-3).
Assay [20] is filed under the species Mus musculus. The assay is described as follows: Effect on whole mouse brain norepinephrine level after 1 day (control = 100+/-3).
The species entered for assay [21] is Mus musculus. Description: Effect on whole mouse brain homovanillic acid level after 1 week (control = 100+/-5).
For assay [22], the species on record is Mus musculus. Description: Effect on whole mouse brain choline level after 3h (control = 100+/-5).
The species entered for assay [23] is Mus musculus. Description: Effect on whole mouse brain acetylcholine level after 1 week (control = 100+/-13).
The species named for assay [24] is Mus musculus. Description: Effect on whole mouse brain acetylcholine level after 1 day (control = 100+/-5).
For assay [25], the species on record is Mus musculus. The assay is described as follows: Effect on whole mouse brain DOPAC level after 1 week (control = 100+/-9).
The species entered for assay [26] is Mus musculus. Description: Effect on whole mouse brain dopamine level after 3h (control = 100+/-3).
The species entered for assay [27] is Mus musculus. The assay is described as follows: Effect on whole mouse brain 5-HT acid level after 1 day (control = 100+/-2).
The species named for assay [28] is Mus musculus. Description: Effect on whole mouse brain 5-hydroxyindoleacetic acid level after 1 week (control = 100+/-10).
The species named for assay [29] is Mus musculus. Description: Effect on whole mouse brain acetylcholine level after 3h (control = 100+/-5).
The species named for assay [30] is Mus musculus. Description: Effect on whole mouse brain 5-hydroxyindoleacetic acid level after 1 day (control = 100+/-5).
The species named for assay [31] is Mus musculus. Description: Effect on whole mouse brain homovanillic acid level after 3h (control = 100+/-6).

Structures are written as SMILES.

Turning to `CC1NCCc2c1[nH]c1ccc(O)c(-c3c(O)ccc4[nH]c5c(c34)CCNC5C)c21` (stereo in doubt; 5), the Control in assay [1] is recorded as 90%; in assay [2], 146%; in assay [3], 94%; in [4], 97%; in [5], 87%; in assay [6] it was 115%. Besides, the values for the Control in assay [7] and in assay [8] were 77% and 102%, respectively.

Turning to `CC1NCCc2c1[nH]c1ccc(O)c(-c3c(O)ccc4[nH]c5c(c34)CCNC5C)c21` (centres undefined), the Control was 107% in assay [9]; 86% in assay [10]; 103% in assay [11]; 93% in assay [12]; 93% in assay [13]; 81% in assay [14]. The Control stood at 98% in [15]; 97% in [16]; 107% in [17]; 111% in [18]; 107% in assay [19]; 105% in assay [20]. The Control came to 100% in assay [21]; 83% in [22]; 94% in [23]; 78% in [24]; 96% in assay [25]; 98% in assay [26]. Besides, the Control in assay [27] stood at 111%; in assay [28] it was 99%; in [29], 98%; in assay [30], 135%; in assay [31] it was 90%.

Regarding `CC1NCCc2c1[nH]c1ccc(O)c(-c3c(O)ccc4[nH]c5c(c34)CCNC5C)c21` (stereo in doubt; 6), the Control in assay [1] is listed as 96%; in assay [2], 163%; in [3], 107%; in [4], 101%; in assay [5], 73%; in assay [6], 132%. Further, the Control in [7] worked out at 97%; in assay [8], 104%.

Source of the values: ChEMBL document CHEMBL1126027, “Oxidation chemistry and biochemistry of the central mammalian alkaloid 1-methyl-6-hydroxy-1,2,3,4-tetrahydro-beta-carboline” (1992).
